Here are results for 26 molecules from patent US20230373985A1 (Origenis Gmbh, priority 2020, published 2023).

In assay [1] the target is T1, wt human JAK1, catalytic site (Homo sapiens, UniProt P23458).
T1 construct: wt human JAK1, catalytic site; purchased ThermoFisher
As to the kind of experiment: HTRF KinEASE assay, JAK1. It counts as biochemical. To be noted: 2.5 μM ATP; read-out: IC50, Activity Toward JAK1. As to the method: (§1) Basic protocol for HTRF KinEASE assay (Cisbio/FRA) inhibitor studies involved two steps: • Enzymatic step: Addition of 4 μL of test compound in corresponding DMSO dilutions, 4 μL of kinase/substrate mixture, 2 μL of ATP into 384 well small volume plates. Incubation for at least 30 minutes at room temperature. • Detection step: Addition of 5 μL antibody and 5 μL streptavidin-XL665, read plate after 60 minutes. Data analysis of emission ratios according KinEASE assay protocol.
(§2) Kinase and assay components were adjusted to final concentrations according to kit protocol. For TYK2: 2 nM wt human TYK2, catalytic site (SignalChem/CAN), 1 μM HTRF KinEASE-TK Substrate-biotin, 1 μM ATP in 1× Kinase Buffer. […] For JAK2: 1 nM wt human JAK2, catalytic site (SignalChem/CAN), 1 μM HTRF KinEASE-TK Substrate-biotin, 100 μM ATP in 1× Kinase Buffer.
as §2
In general terms: TR-FRET usually uses a lanthanide donor and a delayed reading to cut background.

For assay [2], the target named is T2, wt human TYK2, catalytic site (Homo sapiens, UniProt P29597).
T2 construct: wt human TYK2, catalytic site; purchased SignalChem
T2 sequence (P29597 897-1176 limits assumed): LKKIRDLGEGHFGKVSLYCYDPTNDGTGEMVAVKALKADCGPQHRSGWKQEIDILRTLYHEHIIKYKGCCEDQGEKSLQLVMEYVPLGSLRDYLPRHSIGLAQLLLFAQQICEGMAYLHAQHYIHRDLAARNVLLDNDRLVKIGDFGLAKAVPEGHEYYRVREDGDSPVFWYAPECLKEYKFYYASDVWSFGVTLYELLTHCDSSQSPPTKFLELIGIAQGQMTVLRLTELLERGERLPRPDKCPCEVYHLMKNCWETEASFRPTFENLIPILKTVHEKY
In words: HTRF KinEASE assay, TYK2. It counts as biochemical. To be noted: 1 μM ATP; read-out: IC50, Activity Toward TYK2. As to the method: as §1
(§3) Kinase and assay components were adjusted to final concentrations according to kit protocol. For TYK2: 2 nM wt human TYK2, catalytic site (SignalChem/CAN), 1 μM HTRF KinEASE-TK Substrate-biotin, 1 μM ATP in 1× Kinase Buffer. For JAK1: 4 nM wt human JAK1, catalytic site (ThermoFisher/USA), 1 μM HTRF KinEASE-TK Substrate-biotin, 2.5 μM ATP in 1× Kinase Buffer. For JAK2: 1 nM wt human JAK2, catalytic site (SignalChem/CAN), 1 μM HTRF KinEASE-TK Substrate-biotin, 100 μM ATP in 1× Kinase Buffer.
as §3

T1 sequence (P23458 875-1153 limits assumed): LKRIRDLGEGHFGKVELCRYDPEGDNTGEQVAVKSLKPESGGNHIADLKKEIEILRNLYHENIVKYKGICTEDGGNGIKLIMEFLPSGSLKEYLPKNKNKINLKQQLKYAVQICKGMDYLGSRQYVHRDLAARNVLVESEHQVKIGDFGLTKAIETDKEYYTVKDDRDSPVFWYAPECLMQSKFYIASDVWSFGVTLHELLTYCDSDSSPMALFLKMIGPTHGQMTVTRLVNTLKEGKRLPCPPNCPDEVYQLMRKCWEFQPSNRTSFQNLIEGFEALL

As for `NC(=O)c1nn(-c2c(Cl)cccc2Cl)nc1Nc1ccc(C(=O)N2CCC(F)C2)cn1` (stereo in doubt) [compound 130, (S)-2-(2,6-dichlorophenyl)-5-((5-(3-fluoropyrrolidine-1-carbonyl)pyridin-2-yl)amino)-2H-1,2,3-triazole-4-carboxamide], the IC50 in assay [1] lay in the range of 100 to 1000 nM; in assay [2], 10 to 100 nM. In the same order, the values of `N#Cc1cc(Cl)c(-n2nc(Nc3ccc(C(=O)N4CCC(F)C4)cc3)c(C(N)=O)n2)c(Cl)c1` (stereo in doubt) [compound 148, (R)-2-(2,6-dichloro-4-cyanophenyl)-5-((4-(3-fluoropyrrolidine-1-carbonyl)phenyl)amino)-2H-1,2,3-triazole-4-carboxamide] are 100 to 1000 nM and 10 to 100 nM. For `CS(=O)(=O)n1cc(Nc2nn(-c3c(Cl)cccc3Cl)nc2C(N)=O)cn1` [Compound No. 172, 2-(2,6-dichlorophenyl)-5-((1-(methylsulfonyl)-1H-pyrazol-4-yl)amino)-2H-1,2,3-triazole-4-carboxamide], the concentration for half-maximal inhibition (IC50) in assay [1] was in the range of 100 to 1000 nM. For the molecule `CC(C)(C)NC(=O)c1ccc(Nc2cn(-c3c(Cl)cccc3Cl)nc2C(N)=O)cc1F` [compound 28, 4-((4-(tert-butylcarbamoyl)-3-fluorophenyl)amino)-1-(2,6-dichlorophenyl)-1H-pyrazole-3-carboxamide], the values for the IC50 in assay [1] and in assay [2] were 100 to 1000 nM and 10 to 100 nM, respectively. Take `CC(C)(C)NC(=O)c1ccc(Nc2cn(-c3c(F)cccc3Cl)nc2C(N)=O)cc1F` [compound 29]: the IC50 in assay [1] was 100 to 1000 nM; in assay [2] it was 10 to 100 nM.

In the case of `CC(C)(C)OC(=O)N1CCCC(NC(=O)c2ccc(Nc3cn(-c4c(Cl)cccc4Cl)nc3C(N)=O)cc2)C1` (stereo not drawn) [compound 33, tert-butyl_3-(4-((3-carbamoyl-1-(2,6-dichlorophenyl)-1H-pyrazol-4-yl)amino)benzamido)piperidine-1-carboxylate], the IC50 in assay [1] and in assay [2] was 100 to 1000 nM throughout. As to `NC(=O)c1nn(-c2c(Cl)cccc2Cl)cc1Nc1ccc(C(=O)NC2CCCNC2)cc1` (stereo not drawn) [compound 39, 1-(2,6-dichlorophenyl)-4-((4-(piperidin-3-ylcarbamoyl)phenyl)amino)-1H-pyrazole-3-carboxamide], the IC50 in assay [1] fell in the range of 10 to 100 nM; in assay [2], 100 to 1000 nM.

For the molecule `CC(C)(C)C(=O)c1ccc(Nc2cn(-c3c(Cl)cccc3Cl)nc2C(N)=O)cc1` [compound 41, 1-(2,6-dichlorophenyl)-4-((4-pivaloylphenyl)amino)-1H-pyrazole-3-carboxamide], the IC50 in assay [1] and in assay [2] was 100 to 1000 nM in each case. As to `Cc1nc2cc(Nc3cn(-c4c(Cl)cccc4Cl)nc3C(N)=O)ccc2n1C` [compound 43, 1-(2,6-dichlorophenyl)-4-((1,2-dimethyl-1H-benzo[d]imidazol-5-yl)amino)-1H-pyrazole-3-carboxamide], the IC50 in assay [1] and in assay [2] was 100 to 1000 nM in each case. Turning to `NC(=O)c1nn(-c2c(Cl)cccc2Cl)cc1Nc1ccc(-c2nnc3n2CCCC3)cc1` [compound 55, 1-(2,6-dichlorophenyl)-4-((4-(5,6,7,8-tetrahydro-[1,2,4]triazolo[4,3-a]pyridin-3-yl)phenyl)amino)-1H-pyrazole-3-carboxamide], the IC50 in assay [1] is 100 to 1000 nM; in assay [2], 10 to 100 nM. In the same order, the values of `NC(=O)c1nn(-c2c(Cl)cccc2Cl)cc1Nc1ccc(-c2nnccc2Cl)cc1` [compound 67, 4-((4-(4-chloropyridazin-3-yl)phenyl)amino)-1-(2,6-dichlorophenyl)-1H-pyrazole-3-carboxamide] are 100 to 1000 nM and 100 to 1000 nM. In the same order, the values of `NC(=O)c1nn(-c2c(Cl)cccc2Cl)cc1Nc1ccc(-c2nnccc2C(F)(F)F)cc1` [compound 69, 1-(2,6-dichlorophenyl)-4-((4-(4-(trifluoromethyl)pyridazin-3-yl)phenyl)amino)-1H-pyrazole-3-carboxamide] are 100 to 1000 nM and 10 to 100 nM. For `Cc1ccc(=O)n(-c2ccc(Nc3cn(-c4c(Cl)cccc4Cl)nc3C(N)=O)cc2)n1` [compound 72, 1-(2,6-dichlorophenyl)-4-((4-(3-methyl-6-oxopyridazin-1(6H)-yl)phenyl)amino)-1H-pyrazole-3-carboxamide], the IC50 in assay [1] lay in the range of 100 to 1000 nM; in assay [2], 10 to 100 nM. For `NC(=O)c1nn(-c2c(Cl)cccc2Cl)cc1Nc1ccc(-n2nnc3c2CCCC3)cc1` [compound 73, 1-(2,6-dichlorophenyl)-4-((4-(4,5,6,7-tetrahydro-1H-benzo[d][1,2,3]triazol-1-yl)phenyl)amino)-1H-pyrazole-3-carboxamide] the same measures were 100 to 1000 nM and 10 to 100 nM. For `NC(=O)c1nn(-c2c(Cl)cccc2Cl)cc1Nc1ccc(C(=O)N2CCOCC2)cn1` [compound 74, 1-(2,6-dichlorophenyl)-4-((5-(morpholine-4-carbonyl)pyridin-2-yl)amino)-1H-pyrazole-3-carboxamide] the same measures were 10 to 100 nM and 10 to 100 nM. For `Cc1ccn(-c2ccc(Nc3cn(-c4c(Cl)cccc4Cl)nc3C(N)=O)cc2)n1` [compound 75, 1-(2,6-dichlorophenyl)-4-((4-(3-methyl-1H-pyrazol-1-yl)phenyl)amino)-1H-pyrazole-3-carboxamide] the same measures were 100 to 1000 nM and 100 to 1000 nM. Take `NC(=O)c1nn(-c2c(Cl)cccc2Cl)cc1Nc1ccc(-n2ccc(Cl)n2)cc1` [compound 76, 4-((4-(3-chloro-1H-pyrazol-1-yl)phenyl)amino)-1-(2,6-dichlorophenyl)-1H-pyrazole-3-carboxamide]: the IC50 in assay [1] was 100 to 1000 nM. Turning to `Cn1ccc(=O)n1-c1ccc(Nc2cn(-c3c(Cl)cccc3Cl)nc2C(N)=O)cc1` [compound 77, 1-(2,6-dichlorophenyl)-4-((4-(2-methyl-5-oxo-2,5-dihydro-1H-pyrazol-1-yl)phenyl)amino)-1H-pyrazole-3-carboxamide], the IC50 in assay [1] and in assay [2] was 100 to 1000 nM throughout.

In the case of `CCc1nc(C(F)(F)F)nn1-c1ccc(Nc2nn(-c3c(Cl)cccc3Cl)nc2C(N)=O)cc1` [compound 121], in assay [1], the IC50 was in the range of 100 to 1000 nM. Still for that read-out and setting: the same measure for `NC(=O)c1nn(-c2c(Cl)cccc2Cl)nc1Nc1ccc(-n2nncc2C(F)(F)F)cc1` [compound 155, 2-(2,6-dichlorophenyl)-5-((4-(5-(trifluoromethyl)-1H-1,2,3-triazol-1-yl)phenyl)amino)-2H-1,2,3-triazole-4-carboxamide]: 10 to 100 nM; for `Cc1cn(-c2ccc(Nc3cn(-c4c(Cl)cccc4Cl)nc3C(N)=O)cc2)nc1C` [compound 217, 1-(2,6-dichlorophenyl)-4-((4-(3,4-dimethyl-1H-pyrazol-1-yl)phenyl)amino)-1H-pyrazole-3-carboxamide]: 100 to 1000 nM. The same measure, in the same setting: the same measure for `CCc1c(C)nn(-c2ccc(Nc3cn(-c4c(Cl)cccc4Cl)nc3C(N)=O)cc2)c1C` [compound 222, 1-(2,6-dichlorophenyl)-4-((4-(4-ethyl-3,5-dimethyl-1H-pyrazol-1-yl)phenyl)amino)-1H-pyrazole-3-carboxamide]: 100 to 1000 nM. With `CCc1cccnc1-c1ccc(Nc2cn(-c3c(Cl)cccc3Cl)nc2C(N)=O)cc1` [compound 234, 1-(2,6-dichlorophenyl)-4-((4-(3-ethylpyridin-2-yl)phenyl)amino)-1H-pyrazole-3-carboxamide], the IC50 in assay [1] lay within 100 to 1000 nM. For the molecule `NC(=O)c1nn(-c2c(Cl)cccc2Cl)cc1Nc1ccc(-n2nncc2C(F)(F)F)cn1` [compound 437, 1-(2,6-dichlorophenyl)-4-((5-(5-(trifluoromethyl)-1H-1,2,3-triazol-1-yl)pyridin-2-yl)amino)-1H-pyrazole-3-carboxamide], in assay [1], the IC50 was in the range of 100 to 1000 nM.

Regarding `CC1(C)CN(C(=O)c2ccc(Nc3cn(-c4c(Cl)cccc4Cl)nc3C(N)=O)nc2)C1` [compound 465, 1-(2,6-dichlorophenyl)-4-((5-(3,3-dimethylazetidine-1-carbonyl)pyridin-2-yl)amino)-1H-pyrazole-3-carboxamide], the IC50 in assay [2] fell in the range of 100 to 1000 nM.

As to `Cc1cccc2nnc(-c3ccc(Nc4cn(-c5c(Cl)cc(F)cc5Cl)nc4C(N)=O)cn3)n12` [compound 477, 1-(2,6-dichloro-4-fluorophenyl)-4-((6-(5-methyl-[1,2,4]triazolo[4,3-a]pyridin-3-yl)pyridin-3-yl)amino)-1H-pyrazole-3-carboxamide], the IC50 in assay [2] lay within 10 to 100 nM.

For orientation: IC50 means the concentration at which inhibition is half-maximal.
